Measured values as given in patent publication US20180279615A1 (priority 2015, published 2018).

System: Botrytis cinerea
Experiment: Activity against the grey mold Botrytis cinerea in the microtiterplate test
Format: cell-based
Details: comparative examples, measured at 405 nm 7 days after inoculation

For Cc1cc(C2=NC(C)(C)C(C)c3ccccc32)cnc1C (centres unmarked) [I-1, 1-(5,6-dimethyl-3-pyridyl)-3,3,4-trimethyl-4H-isoquinoline], the “Growth (%) at 32 ppm” value was 0%.
For Cc1cc(C2=NC(C)(C)Cc3ccccc32)cnc1C, the “Growth (%) at 32 ppm” value was 51%.
